Measurements: patent US12692236B2, “Small molecule modulators of sigma-1 and sigma-2 receptors and uses thereof” (Northwestern University, priority 2018, dated 2026)
Where two headings read alike, the source gives them in different places.

Experiments:
sigma-2 receptor = sigma-2 receptor (Homo sapiens, UniProt Q5BJF2); experiment: sigma-2 receptor binding affinity (Ki)
sigma-1 receptor = sigma-1 receptor (Homo sapiens, UniProt Q99720); experiment: sigma-1 receptor binding affinity (Ki)
sigma-1 receptor, sequence (Q99720 whole entry, species assumed): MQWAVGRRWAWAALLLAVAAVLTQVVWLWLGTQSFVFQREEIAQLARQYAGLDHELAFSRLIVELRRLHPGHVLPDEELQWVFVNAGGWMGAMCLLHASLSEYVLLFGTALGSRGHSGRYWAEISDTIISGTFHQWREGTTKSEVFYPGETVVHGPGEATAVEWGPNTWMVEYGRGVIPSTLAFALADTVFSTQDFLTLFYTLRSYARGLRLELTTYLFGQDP

sigma-2 receptor, sequence (Q5BJF2 whole entry, species assumed): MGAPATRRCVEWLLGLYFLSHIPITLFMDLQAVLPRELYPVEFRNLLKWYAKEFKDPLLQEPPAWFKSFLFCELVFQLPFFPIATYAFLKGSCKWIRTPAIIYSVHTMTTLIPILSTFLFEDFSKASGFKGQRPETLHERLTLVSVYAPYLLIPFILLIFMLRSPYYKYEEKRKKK

| Structure (SMILES) | Ki (sigma-2 receptor; read-out: Ki (nM) Sigma-2) | Ki (sigma-1 receptor; read-out: Ki (nM) Sigma-1) | other results |
| --- | --- | --- | --- |
| CCCn1nc(C(=O)N(C)C)c2c1CCC(NCc1ccc(F)cc1)C2 (centres unmarked) [compound 54121, 5-((4-Fluorobenzyl)amino)-N,N-dimethyl-1-propyl-4,5,6,7-tetrahydro-1H-indazole-3-carboxamide] | 2190 nM | 1580 nM | activity against sigma-1 (in words) (sigma-1 receptor): moderate activity; selectivity sigma-1 versus sigma-2 (in words) (sigma-1 receptor): slightly more selectivity for the sigma-1 receptor; Ki (sigma-1 receptor; read-out: Ki sigma-1): 1500 nM; activity against sigma-2 (in words) (sigma-2 receptor): moderate activity; Ki (sigma-2 receptor; read-out: Ki sigma-2): 2100 nM |
| CCCn1nc(C(=O)N2CCCCC2)c2c1CCC(N1CCC(N(C)C)CC1)C2 (centres unmarked) [compound 196331, (5-(4-(dimethylamino)piperidin-1-yl)-1-propyl-4,5,6,7-tetrahydro-1H-indazol-3-yl)(piperidin-1-yl)methanone] | > 10000 nM | > 10000 nM | – |
| CCCn1nc(C(=O)N2CCCCC2)c2c1CCC(NCCc1ccncc1)C2 (centres unmarked) [compound 200390, Piperidin-1-yl(1-propyl-5-((2-(pyridin-4-yl)ethyl)amino)-4,5,6,7-tetrahydro-1H-indazol-3-yl)methanone] | – | – | activity against sigma-1 (in words) (sigma-1 receptor): eliminated the activity; activity against sigma-2 (in words) (sigma-2 receptor): eliminated the activity |
| CCCn1nc(C(=O)N(C)C)c2c1CCC(OCc1ccc(F)cc1)C2 (centres unmarked) [compound 200622, 5-((4-fluorobenzyl)oxy)-N,N-dimethyl-1-propyl-4,5,6,7-tetrahydro-1H-indazole-3-carboxamide] | > 10000 nM | > 10000 nM | activity against sigma-1 (in words) (sigma-1 receptor): completely lost; activity against sigma-2 (in words) (sigma-2 receptor): completely lost |
| CCCn1nc(C(=O)N(C)C)c2c1CCC(SCc1ccc(F)cc1)C2 (centres unmarked) [compound 200624, 5-((4-fluorobenzyl)thio)-N,N-dimethyl-1-propyl-4,5,6,7-tetrahydro-1H-indazole-3-carboxamide] | > 10000 nM | > 10000 nM | activity against sigma-1 (in words) (sigma-1 receptor): completely lost; activity against sigma-2 (in words) (sigma-2 receptor): completely lost |
| CCCn1nc(C(=O)N(C)C)c2c1CCC(NS(=O)(=O)c1ccc(F)cc1)C2 (centres unmarked) [compound 200629, 5-((4-fluorophenyl)sulfonamido)-N,N-dimethyl-1-propyl-4,5,6,7-tetrahydro-1H-indazole-3-carboxamide] | > 10000 nM | > 10000 nM | activity against sigma-1 (in words) (sigma-1 receptor): did not restore the activity; activity against sigma-2 (in words) (sigma-2 receptor): did not restore the activity |
| CCCn1nc(C(=O)N2CCCCC2)c2c1CCC(Nc1ccc(N3CCCCC3)cc1)C2 (centres unmarked) [compound 200637, Piperidin-1-yl(5-((4-(piperidin-1-yl)phenyl)amino)-1-propyl-4,5,6,7-tetrahydro-1H-indazol-3-yl)methanone] | 787 nM | – | – |
| CCCn1nc(C(=O)N2CCCCC2)c2c1CCC(N1CCN(Cc3ccc(C#N)cc3)CC1)C2 (centres unmarked) [compound 200641, 4-((4-(3-(Piperidine-1-carbonyl)-1-propyl-4,5,6,7-tetrahydro-1H-indazol-5-yl)piperazin-1-yl)methyl)benzonitrile] | 1100 nM | – | – |
| CCCn1nc(C(=O)N2CCCCC2)c2c1CCC(NCCCNC)C2 (centres unmarked) [compound 200820, (5-((3-(Methylamino)propyl)amino)-1-propyl-4,5,6,7-tetrahydro-1H-indazol-3-yl)(piperidin-1-yl)methanone] | 1990 nM | – | – |
| CCCn1nc(C(=O)N2CCCCC2)c2c1CCC(NCCNC(=N)N)C2 (centres unmarked) [compound 200829, 2-(2-((3-(Piperidine-1-carbonyl)-1-propyl-4,5,6,7-tetrahydro-1H-indazol-5-yl)amino)ethyl)guanidine] | 2160 nM | – | activity against sigma-2 (in words) (sigma-2 receptor): decreased activity |
| CCCn1nc(C(=O)N(C)C)c2c1CCC(NCc1ccc(OC)cc1OC)C2 (centres unmarked) [compound 200874, 5-((2,4-dimethoxybenzyl)amino)-N,N-dimethyl-1-propyl-4,5,6,7-tetrahydro-1H-indazole-3-carboxamide] | 839 nM | – | – |
| CCCn1nc(C(=O)N(C)C)c2c1CCC(NCc1ccc(Cl)cc1)C2 (centres unmarked) [compound 200875, 5-((4-chlorobenzyl)amino)-N,N-dimethyl-1-propyl-4,5,6,7-tetrahydro-1H-indazole-3-carboxamide] | 1020 nM | – | activity against sigma-1 (in words) (sigma-1 receptor): complete loss of activity; activity against sigma-2 (in words) (sigma-2 receptor): moderate inhibition |
| O=C(c1nn(Cc2ccccc2)c2c1CC(NCCc1ccncc1)CC2)N1CCCCC1 (centres unmarked) [compound 201114, (1-benzyl-5-((2-(pyridin-4-yl)ethyl)amino)-4,5,6,7-tetrahydro-1H-indazol-3-yl)(piperidin-1-yl)methanone] | > 10000 nM | 249 nM | – |
| O=C(c1nn(Cc2ccccc2)c2c1CC(NCc1ccc(F)cc1)CC2)N1CCCCC1 (centres unmarked) [compound 201115, (1-benzyl-5-((4-fluorobenzyl)amino)-4,5,6,7-tetrahydro-1H-indazol-3-yl)(piperidin-1-yl)methanone] | > 10000 nM | 70 nM | selectivity sigma-1 versus sigma-2 (in words) (sigma-1 receptor): excellent selectivity |
| O=C(c1c2c(nn1-c1ccc(F)cc1)CCC(NCc1ccc(F)cc1)C2)N1CCCCC1 (centres unmarked) [compound 201117, (5-((4-fluorobenzyl)amino)-2-(4-fluorophenyl)-4,5,6,7-tetrahydro-2H-indazol-3-yl)(piperidin-1-yl)methanone] | – | 17 nM | selectivity of sigma-1 ligand against sigma-2 (sigma-1 receptor): over 500 × |

More lines, main results first:

| Ki (sigma-2 receptor; read-out: Ki (nM) Sigma-2) | Ki (sigma-1 receptor; read-out: Ki (nM) Sigma-1) | Structure (SMILES) | other results |
| --- | --- | --- | --- |
| 673 nM | – | CCCn1nc(C(=O)N2CCCCC2)c2c1CCC(NCCCN1CCCC1=O)C2 (centres unmarked) [compound 54120] | – |
| 34 nM | 192 nM | CCCn1nc(C(=O)N2CCCCC2)c2c1CCC(N1CCN(C)CC1)C2 (centres unmarked) [compound 196337, (5-(4-methylpiperazin-1-yl)-1-propyl-4,5,6,7-tetrahydro-1H-indazol-3-yl)(piperidin-1-yl)methanone] | activity against sigma-2 (in words) (sigma-2 receptor): great overall potency; selectivity for sigma-2 over sigma-1 (sigma-2 receptor): about 5 fold |
| 31 nM | – | CCCn1nc(C(=O)N2CCCCC2)c2c1CCC(N1CCc3ccccc3C1)C2 (centres unmarked) [compound 196338, (5-(3,4-dihydroisoquinolin-2(1H)-yl)-1-propyl-4,5,6,7-tetrahydro-1H-indazol-3-yl)(piperidin-1-yl)methanone] | activity against sigma-2 (in words) (sigma-2 receptor): retained sigma-2 activity; selectivity of sigma-2 ligands against sigma-1 (in words) (sigma-2 receptor): excellent selectivity |
| 19 nM | – | CCCn1nc(C(=O)N2CCCCC2)c2c1CCC(N(C)Cc1ccc(F)cc1)C2 (centres unmarked) [compound 196339, (5-((4-fluorobenzyl)(methyl)amino)-1-propyl-4,5,6,7-tetrahydro-1H-indazol-3-yl)(piperidin-1-yl)methanone] | selectivity of sigma-2 ligands against sigma-1 (in words) (sigma-2 receptor): excellent selectivity |
| 16 nM | – | CCCn1nc(C(=O)N2CCCCC2)c2c1CCC(N1CCC(c3ccncc3)CC1)C2 (centres unmarked) [compound 200639, Piperidin-1-yl(1-propyl-5-(4-(pyridin-4-yl)piperidin-1-yl)-4,5,6,7-tetrahydro-1H-indazol-3-yl)methanone] | selectivity of sigma-2 ligands against sigma-1 (in words) (sigma-2 receptor): excellent selectivity |
| 434 nM | – | CCCn1nc(C(=O)N2CCCCC2)c2c1CCC(NCCN1CCCCC1)C2 (centres unmarked) [compound 200640, Piperidin-1-yl(5-((2-(piperidin-1-yl)ethyl)amino)-1-propyl-4,5,6,7-tetrahydro-1H-indazol-3-yl)methanone] | – |
| 710 nM | – | CCCn1nc(C(=O)N2CCCCC2)c2c1CCC(NCC1CCOCC1)C2 (centres unmarked) [compound 200642, Piperidin-1-yl(1-propyl-5-(((tetrahydro-2H-pyran-4-yl)methyl)amino)-4,5,6,7-tetrahydro-1H-indazol-3-yl)methanone] | – |
| 273 nM | > 10000 nM | CCCn1nc(C(=O)N2CCCCC2)c2c1CCC(NCCc1ccc(O)cc1)C2 (centres unmarked) [compound 200643, (5-((4-Hydroxyphenethyl)amino)-1-propyl-4,5,6,7-tetrahydro-1H-indazol-3-yl)(piperidin-1-yl)methanone] | selectivity of sigma-2 ligands against sigma-1 (in words) (sigma-2 receptor): excellent selectivity; more potent against sigma-2 (sigma-2 receptor; relative to earlier dimethyl amide analogs): about 8 fold |
| 612 nM | 872 nM | CCCn1nc(C(=O)N2CCCCC2)c2c1CCC(NCCc1cccc(O)c1)C2 (centres unmarked) [compound 200646, (5-((3-Hydroxyphenethyl)amino)-1-propyl-4,5,6,7-tetrahydro-1H-indazol-3-yl)(piperidin-1-yl)methanone] | – |
| 169 nM | – | CCCn1nc(C(=O)N2CCCCC2)c2c1CCC(NCc1ccc(N3CCCCC3)cc1)C2 (centres unmarked) [compound 200647, Piperidin-1-yl(5-((4-(piperidin-1-yl)benzyl)amino)-1-propyl-4,5,6,7-tetrahydro-1H-indazol-3-yl)methanone] | – |
| 439 nM | – | CCCn1nc(C(=O)N2CCCCC2)c2c1CCC(NCc1ccc(S(N)(=O)=O)cc1)C2 (centres unmarked) [compound 200652, 4-(((3-(Piperidine-1-carbonyl)-1-propyl-4,5,6,7-tetrahydro-1H-indazol-5-yl)amino)methyl)benzenesulfonamide] | – |
| 310 nM | > 10000 nM | CCCn1nc(C(=O)N2CCCCC2)c2c1CCC(Nc1ccc(Oc3ccccc3)cc1)C2 (centres unmarked) [compound 200702] | – |
| 526 nM | 1590 nM | CCCn1nc(C(=O)N2CCCCC2)c2c1CCC(N1CCN(c3ccc([N+](=O)[O-])cc3)CC1)C2 (centres unmarked) [compound 200709, (5-(4-(4-Nitrophenyl)piperazin-1-yl)-1-propyl-4,5,6,7-tetrahydro-1H-indazol-3-yl)(piperidin-1-yl)methanone] | – |
| 430 nM | > 10000 nM | CCCn1nc(C(=O)N(C)C)c2c1CCC(NCCc1ccc3c(c1)OCO3)C2 (centres unmarked) [compound 200876, 5-((2-(benzo[d][1,3]dioxol-5-yl)ethyl)amino)-N,N-dimethyl-1-propyl-4,5,6,7-tetrahydro-1H-indazole-3-carboxamide] | – |
| 595 nM | 1400 nM | CCCn1nc(C(=O)N(C)C)c2c1CCC(NCCc1ccc(C(F)(F)F)cc1)C2 (centres unmarked) [compound 200878, N,N-dimethyl-1-propyl-5-((4-(trifluoromethyl)phenethyl)amino)-4,5,6,7-tetrahydro-1H-indazole-3-carboxamide] | – |
| 251 nM | 103 nM | O=C(c1c2c(nn1-c1ccc(F)cc1)CCC(NCCc1ccncc1)C2)N1CCCCC1 (centres unmarked) [compound 201116, (2-(4-fluorophenyl)-5-((2-(pyridin-4-yl)ethyl)amino)-4,5,6,7-tetrahydro-2H-indazol-3-yl)(piperidin-1-yl)methanone] | – |
